Assay results: patent US20230011869A1 (Hoffmann-La Roche Inc., priority 2018, published 2023)
Structures can show the parent of a compound that is named as a salt. Where two headings read alike, the source gives them in different places.

System: Acinetobacter baumannii ATCC17978
Test: Antimicrobial susceptibility testing: 90% growth inhibitory concentration (IC90) determination, Iso-Sensitest broth
Type: cell-based
Procedure, shortened: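 A. baumannii ATCC17978 grown in Iso-Sensitest broth across 10 compound concentrations at 35±2 °C.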

[1] = 90% growth inhibitory concentration, Acinetobacter baumannii ATCC17978, Iso-Sensitest broth, OD 600 nm over 16 h, read-out: ATCC17978 IC90
[2] = Acinetobacter baumannii, ATCC17978, 16 h, read-out: ATCC17978 IC90, 90% growth inhibitory concentration, Acinetobacter baumannii ATCC17978, Iso-Sensitest broth, OD 600 nm over 16 h

| IC90 [1] | SMILES | IC90 [2] |
| --- | --- | --- |
| 0.097 µM | CNCC(=O)N1CCN(C(=O)c2ccc(Nc3nccn4c(-c5ccc(OC)c(F)c5Cl)cnc34)cc2C)CC1 [Example 307, 1-[4-[4-[[3-(2-chloro-3-fluoro-4-methoxyphenyl)imidazo[1,2-a]pyrazin-8-yl]amino]-2-methylbenzoyl]piperazin-1-yl]-2-(methylamino)ethanone; hy-drochloride] |  |
|  | Cc1cc(Nc2nccn3c(-c4ccc(OC(F)F)cc4)cnc23)ccc1C(=O)N1CCN(C(=O)NCC2(O)CNC2)CC1 [Example 493, 4-[4-[[3-[4-(difluoromethoxy)phenyl]imi-dazo[1,2-a]pyrazin-8-yl]amino]-2-methylbenzoyl]-N-[(3-hydroxyazetidin-3-yl)methyl]piperazine-1-carboxamide; formic acid] | 0.31 µM |
|  | Cc1cc(Nc2nccn3c(-c4ccc(OC(F)F)cc4)cnc23)ccc1C(=O)N1CCN(C(=O)C2(O)CCNCC2)CC1 [Example 490, [4-[[3-[4-(difluoromethoxy)phenyl]imi-dazo[1,2-a]pyrazin-8-yl]amino]-2-methylphenyl]-[4-(4-hydroxypiperidine-4-carbonyl)piperazin-1-yl]methanone; hydrochloride] | 0.28 µM |
|  | Cc1cc(Nc2nccn3c(-c4ccc(OC(F)F)cc4)cnc23)ccc1C(=O)N1CCC(C(=O)N2C[C@H](O)[C@@H](O)[C@@H](O)[C@H]2CO)CC1 [Example 270, [4-[[3-[4-(difluoromethoxy)phenyl]imi-dazo[1,2-a]pyrazin-8-yl]amino]-2-methylphenyl]-[4-[(2R,3S,4R,5S)-3,4,5-trihydroxy-2-(hydroxymethyl)piperidine-1-carbonyl]piperidin-1-yl]methanone] | 2 µM |
|  | CCc1cc(Nc2nccn3c(-c4ccc(OCC#N)c(F)c4F)cnc23)ccc1C(=O)N1CCN(C(=O)[C@H]2CCNC[C@@H]2O)CC1 (racemic) [Example 498, 2-[4-[8-[3-ethyl-4-[4-[rac-(3R,4S)-3-hydroxypiperidine-4-carbonyl]piperazine-1-carbonyl]anilino]imidazo[1,2-a]pyrazin-3-yl]-2,3-difluorophenoxy]acetonitrile; formic acid] | 0.33 µM |
|  | Cc1cc(Nc2nccn3c(-c4ccc(OC(F)F)cc4)cnc23)ccc1C(=O)N1CCN(C(=O)C2C=CNCC2)CC1 (stereo not shown) [Example 501, [4-[[3-[4-(difluoromethoxy)phenyl]imi-dazo[1,2-a]pyrazin-8-yl]amino]-2-methylphenyl]-[4-(1,2,3,4-tetrahydropyridine-4-carbonyl)piperazin-1-yl]methanone; hydrochloride] | 0.41 µM |
|  | Cc1cc(Nc2nccn3c(-c4ccc(OC(F)F)cc4)cnc23)ccc1C(=O)N1CCC(C(=O)NC[C@@H]2CNC(=O)O2)CC1 [Example 548, (R)-1-(4-((3-(4-(difluoromethoxy)phenyl)imidazo [1,2-a]pyrazin-8-yl)amino)-2-methylbenzoyl)-N-((2-oxooxazolidin-5-yl)methyl)piperidine-4-carboxamide] | 0.203 µM |
|  | Cc1cc(Nc2nccn3c(-c4ccc(OC(F)F)cc4)cnc23)ccc1C(=O)N1CCC(N2CCNCC2)CC1 [Example 45, (4-((3-(4-(difluoromethoxy)phenyl)imidazo[1,2-a]pyrazin-8-yl)amino)-2-methylphenyl)(4-(piperazin-1-yl)piperidin-1-yl)methanone hydrochloride] | 0.19 µM |
| 1.2 µM | Cc1cc(Nc2nccn3c(-c4ccc(OCC#N)c(F)c4F)cnc23)ccc1C(=O)N1CCN(C(=O)N2CCN[C@H](C(=O)O)C2)CC1 [Example 442, (2S)-4-[4-[4-[[3-[4-(cyanomethoxy)-2,3-difluorophenyl]imidazo[1,2-a]pyrazin-8-yl]amino]-2-methylbenzoyl]piperazine-1-carbonyl]piperazine-2-carboxylic acid] |  |
| 0.43 µM | COc1ccc(-c2cnc3c(Nc4ccc(C(=O)N5CCNCC5)c(C)c4)nccn23)cc1F [Example 130, [4-[[3-(3-fluoro-4-methoxy-phenyl)imidazo[1,2-a]pyrazin-8-yl]amino]-2-methyl-phenyl]-piperazin-1-yl-methanone hydrochloride] |  |
|  | CCC(C#N)Oc1ccc(-c2cnc3c(Nc4ccc(C(=O)N5CCC(CN)CC5)c(C)c4)nccn23)c(F)c1F (stereo not shown) [Example 564, 2-(4-(8-((4-(4-(aminomethyl)piperidine-1-carbonyl)-3-methylphenyl)amino)imidazo [1,2-a]pyrazin-3-yl)-2,3-difluorophenoxy)butanenitrile formate] | 0.969 µM |
|  | COc1ccc(-c2cnc3c(Nc4ccc(C(=O)N5CCC(C(=O)NCCN6CCNCC6=O)CC5)c(C)c4)nccn23)cc1F [Example 412, 1-[4-[[3-(3-fluoro-4-methoxyphenyl)imidazo[1,2-a]pyrazin-8-yl]amino]-2-methylbenzoyl]-N-[2-(2-oxopiperazin-1-yl)ethyl]piperidine-4-carboxamide; 2,2,2-trifluoroacetic acid] | 0.76 µM |
|  | COc1cc(Cl)c(-c2cnc3c(Nc4ccc(C(=O)N5CCC(CN)CC5)c(C)c4)nccn23)cc1F [Example 26, [4-(aminomethyl)-1-piperidyl]-[4-[[3-(2-chloro-5-fluoro-4-methoxy-phenyl)imidazo[1,2-a]pyrazin-8-yl]amino]-2-methyl-phenyl]methanone hydrochloride] | 0.37 µM |
| 0.096 µM | Cc1cc(Nc2nccn3c(-c4ccc(OCC#N)c(F)c4Cl)cnc23)ccc1C(=O)N1CCC(C(=O)N2CCNC(CO)C2)CC1 (stereo not shown) [Example 97, 2-[3-chloro-2-fluoro-4-[8-[4-[4-[3-(hydroxymethyl)piperazine-1-carbonyl]piperidine-1-carbonyl]-3-methyl-anilino]imidazo[1,2-a]pyrazin-3-yl]phenoxy]acetonitrile trifluoroacetate] |  |
| 0.94 µM | Cc1cc(Nc2nccn3c(-c4ccc(OCC5CC5)c(F)c4)cnc23)ccc1C(=O)N1CCC(CN)CC1 [Example 118, (4-(aminomethyl)piperidin-1-yl)(4-((3-(4-(cyclopropylmethoxy)-3-fluorophenyl)imidazo[1,2-a]pyrazin-8-yl)amino)-2-methylphenyl)methanone] |  |
|  | CNCC(=O)N1CCN(C(=O)c2ccc(Nc3nccn4c(-c5ccc(OC(F)F)cc5)cnc34)cc2C)CC1 [Example 320, 1-[4-[4-[[3-[4-(difluoromethoxy)phenyl]imi-dazo[1,2-a]pyrazin-8-yl]amino]-2-methylbenzoyl]piperazin-1-yl]-2-(methylamino)ethanone; hy-drochloride] | 0.28 µM |
|  | Cc1cc(Nc2nccn3c(-c4ccc(OC(F)F)cc4)cnc23)ccc1C(=O)N1CCN(C(=O)[C@@H]2CNCCN2)CC1 [Example 441, [4-[[3-[4-(difluoromethoxy)phenyl]imi-dazo[1,2-a]pyrazin-8-yl]amino]-2-methylphenyl]-[4-[(2S)-piperazine-2-carbonyl]piperazin-1-yl]methanone; hydrochloride] | 1.2 µM |
| 0.14 µM | COc1ccc(-c2cnc3c(Nc4ccc(C(=O)N5CCC(C(=O)NCC(N)CO)CC5)c(C)c4)nccn23)cc1F (stereo not shown) [Example 101, N-(2-amino-3-hydroxypropyl)-1-(4-((3-(3-fluoro-4-methoxyphenyl)imidazo[1,2-a]pyrazin-8-yl)amino)-2-methylbenzoyl)piperidine-4-carboxamide hydrochloride] |  |
|  | Cc1cc(Nc2nccn3c(-c4ccc(OC(F)F)cc4)cnc23)ccc1C(=O)N1CCC(C(=O)N2CCNC(C)(C)C2)CC1 [Example 323, [4-[[3-[4-(difluoromethoxy)phenyl]imi-dazo[1,2-a]pyrazin-8-yl]amino]-2-methylphenyl]-[4-(3,3-dimethylpiperazin-1-carbonyl)piperidin-1-yl]methanone; hydrochloride] | 0.3 µM |
|  | Cc1cc(Nc2nccn3c(-c4ccc(OC(F)F)cc4)cnc23)ccc1C(=O)N1CCN(C(=O)N2CCN[C@@H](C(=O)O)C2)CC1 [Example 445, (2R)-4-[4-[4-[[3-[4-(difluoromethoxy)phenyl]imi-dazo[1,2-a]pyrazin-8-yl]amino]-2-methylbenzoyl]piperazine-1-carbonyl]piperazine-2-carboxylic acid; hydrochloride] | 1.9 µM |
|  | Cc1cc(Nc2nccn3c(-c4ccc(OC(F)F)cc4)cnc23)ccc1C(=O)N1CCN(C(=O)C2(N)CCNCC2)CC1 [Example 509, [4-(4-aminopiperidine-4-carbonyl)piperazin-1-yl]-[4-[[3-[4-(difluoromethoxy)phenyl]imi-dazo[1,2-a]pyrazin-8-yl]amino]-2-methylphenyl]methanone; hy-drochloride] | 0.54 µM |
|  | CCc1cc(Nc2nccn3c(-c4ccc(OC)c(F)c4F)cnc23)ccc1C(=O)N1CCN(C(=O)C2CCNCC2)CC1 [Example 494, [4-[[3-(2,3-difluoro-4-methoxyphenyl)imidazo[1,2-a]pyrazin-8-yl]amino]-2-ethylphenyl]-[4-(piperidine-4-carbonyl)piperazin-1-yl]methanone; hydrochloride] | 0.32 µM |
| 0.34 µM | COc1ccc(-c2cnc3c(Nc4ccc(C(=O)N5CCC(C(=O)NCCNCCO)CC5)c(C)c4)nccn23)cc1F [Example 396, 1-[4-[[3-(3-fluoro-4-methoxyphenyl)imidazo[1,2-a]pyrazin-8-yl]amino]-2-methylbenzoyl]-N-[2-(2-hydroxyethylamino)ethyl]pi-peridine-4-carboxamide; 2,2,2-trifluoroacetic acid] |  |
| 1.6 µM | Cc1cc(Nc2nccn3c(-c4ccc(OC(F)F)cc4)cnc23)ccc1C(=O)N1CCCC(C(N)=O)C1 (stereo not shown) [Example 10, 1-(4-((3-(4-(difluoromethoxy)phenyl)imidazo[1,2-a]pyrazin-8-yl)amino)-2-methylbenzoyl)piperidine-3-carboxamide] |  |

| SMILES | IC90 [1] | IC90 [2] |
| --- | --- | --- |
| COc1ccc(-c2cnc3c(Nc4ccc(C(=O)N5CCC(C(=O)NCC6CNC6)CC5)c(C)c4)nccn23)cc1F [Example 65, N-(azetidin-3-ylmethyl)-1-(4-((3-(3-fluoro-4-methoxyphenyl)imidazo[1,2-a]pyrazin-8-yl)amino)-2-methylbenzoyl)piperidine-4-carboxamide] | 0.25 µM |  |
